Assay results: paper PMC5061470, “Promiscuous targeting of bromodomains by bromosporine identifies BET proteins as master regulators of primary transcription response in leukemia” (Science Advances, 2016)
“Also recorded” adds a separate entry of the source.

How the values were obtained:
[1] = target: APJ (apelin) (h) (Homo sapiens, UniProt P35414); assay: biochemical; conditions: read-out: % Inhibition of Control Specific Binding
[2] = target: T1, BRD9 (Homo sapiens, UniProt Q9H8M2); type: binding
T1 sequence (Q9H8M2 136-240 limits assumed): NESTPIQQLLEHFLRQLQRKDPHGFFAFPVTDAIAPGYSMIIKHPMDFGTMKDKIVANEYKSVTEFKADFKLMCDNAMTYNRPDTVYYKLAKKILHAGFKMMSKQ

[3] = target: D3 (h) (Homo sapiens, UniProt P35462); assay: biochemical; conditions: read-out: % Inhibition of Control Specific Binding
[4] = target: PAF (h) (Homo sapiens, UniProt P25105); assay: biochemical; type: binding; conditions: read-out: % Inhibition of Control Specific Binding
[5] = target: BRD2(2) (Homo sapiens, UniProt P25440)
[6] = target: full-length GFP-tagged BRD4 in U2OS cells (Homo sapiens, UniProt O60885); type: cell-based
[7] = target: GABAB(1b) (h) (Homo sapiens, UniProt Q9UBS5); assay: biochemical; conditions: read-out: % Inhibition of Control Specific Binding
[8] = target: alpha 2A (h) (Homo sapiens, UniProt P08913); assay: biochemical; conditions: read-out: % Inhibition of Control Specific Binding
[9] = target: M3 (h) (Homo sapiens, UniProt P20309); assay: biochemical; conditions: read-out: % Inhibition of Control Specific Binding
[10] = tested on: KASUMI-1; assay: cells; type: cell-based, human; conditions: Homo sapiens, Kasumi 1, 72 h, read-out: IC50, cell proliferation
[11] = target: MT1 (ML1A) (h) (Homo sapiens, UniProt P48039); assay: biochemical; conditions: read-out: % Inhibition of Control Specific Binding
[12] = tested on: TNF-alpha (h); assay: CEREP binding, agonist radioligand; set-up: species or system human
[13] = target: alpha 1A (h) (Homo sapiens, UniProt P35348); assay: biochemical; type: binding; conditions: read-out: % Inhibition of Control Specific Binding
[14] = target: 5-HT2C (h) (Homo sapiens, UniProt P28335); assay: biochemical; type: binding; conditions: read-out: % Inhibition of Control Specific Binding
[15] = target: T2, TAF1L(2) (Homo sapiens, UniProt Q8IZX4); type: binding
T2 construct: the second BRD of TAF1L [TAF1L(2); S2E]; made in house; host or cells: bacteria
T2 sequence (Q8IZX4 1517-1626 limits assumed): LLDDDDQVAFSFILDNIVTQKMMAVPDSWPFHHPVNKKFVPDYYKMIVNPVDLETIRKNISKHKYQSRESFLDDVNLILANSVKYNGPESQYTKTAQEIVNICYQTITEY

[16] = tested on: Cl- channel (GABA-gated); type: binding
[17] = target: glycine (strychnine-insensitive) (Rattus norvegicus, UniProt P35439); assay: biochemical; conditions: read-out: % Inhibition of Control Specific Binding
[18] = target: 5-HT7 (h) (Homo sapiens, UniProt P34969); assay: biochemical; conditions: read-out: % Inhibition of Control Specific Binding
[19] = target: H1 (h) (Homo sapiens, UniProt P35367); assay: biochemical; conditions: read-out: % Inhibition of Control Specific Binding
[20] = target: mu (MOP) (h) (Homo sapiens, UniProt P35372); assay: biochemical; conditions: read-out: % Inhibition of Control Specific Binding
[21] = tested on: K562, KASUMI-1, MV4;11, and OCI-AML3; type: cell-based, human
[22] = target: AT2 (h) (Homo sapiens, UniProt P50052); assay: biochemical; conditions: read-out: % Inhibition of Control Specific Binding
[23] = target: T3, TIF1A (Homo sapiens, UniProt O15164); type: binding
T3 construct: Human BRDs were subcloned into bacteria-expressing vectors; made in house; host or cells: bacteria
T3 sequence (O15164 899-1004 limits assumed): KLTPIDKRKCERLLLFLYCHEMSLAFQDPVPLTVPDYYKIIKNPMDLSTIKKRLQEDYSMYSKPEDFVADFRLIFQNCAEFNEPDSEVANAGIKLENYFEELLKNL

[24] = tested on: TR (TH); type: binding
[25] = target: MT3 (ML2) (Mesocricetus auratus, UniProt A0ABM2YAB8); assay: biochemical; type: binding; conditions: read-out: % Inhibition of Control Specific Binding
[26] = target: CB1 (h) (Homo sapiens, UniProt P21554); assay: biochemical; conditions: read-out: % Inhibition of Control Specific Binding
[27] = target: A1 (h) (Homo sapiens, UniProt P30542); assay: biochemical; conditions: read-out: % Inhibition of Control Specific Binding
[28] = target: PPARgamma (h) (Homo sapiens, UniProt P37231); assay: biochemical; conditions: read-out: % Inhibition of Control Specific Binding
[29] = target: CCK2 (CCKB) (h) (Homo sapiens, UniProt P32239); assay: biochemical; conditions: read-out: % Inhibition of Control Specific Binding
[30] = target: CRF1 (h) (Homo sapiens, UniProt P34998); assay: biochemical; type: binding; conditions: read-out: % Inhibition of Control Specific Binding
[31] = target: CECR2 (Homo sapiens, UniProt Q9BXF3); type: binding
[32] = target: kappa (KOP) (Rattus norvegicus, UniProt P34975); assay: biochemical; conditions: read-out: % Inhibition of Control Specific Binding
[33] = target: AT1 (h) (Homo sapiens, UniProt P30556); assay: biochemical; conditions: read-out: % Inhibition of Control Specific Binding
[34] = target: A3 (h) (Homo sapiens, UniProt P0DMS8); assay: biochemical; conditions: read-out: % Inhibition of Control Specific Binding

CECR2, sequence (Q9BXF3 434-538 limits assumed): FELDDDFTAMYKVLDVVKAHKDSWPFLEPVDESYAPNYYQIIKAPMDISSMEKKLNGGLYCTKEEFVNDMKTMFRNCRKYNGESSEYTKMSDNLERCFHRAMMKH
BRD2(2), sequence (P25440 344-453 limits assumed): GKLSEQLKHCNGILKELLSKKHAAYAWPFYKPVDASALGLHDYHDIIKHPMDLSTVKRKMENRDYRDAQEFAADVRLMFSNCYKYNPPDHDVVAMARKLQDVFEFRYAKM
GABAB(1b) (h), sequence (Q9UBS5 other isoform, or with tags, fused parts or gaps): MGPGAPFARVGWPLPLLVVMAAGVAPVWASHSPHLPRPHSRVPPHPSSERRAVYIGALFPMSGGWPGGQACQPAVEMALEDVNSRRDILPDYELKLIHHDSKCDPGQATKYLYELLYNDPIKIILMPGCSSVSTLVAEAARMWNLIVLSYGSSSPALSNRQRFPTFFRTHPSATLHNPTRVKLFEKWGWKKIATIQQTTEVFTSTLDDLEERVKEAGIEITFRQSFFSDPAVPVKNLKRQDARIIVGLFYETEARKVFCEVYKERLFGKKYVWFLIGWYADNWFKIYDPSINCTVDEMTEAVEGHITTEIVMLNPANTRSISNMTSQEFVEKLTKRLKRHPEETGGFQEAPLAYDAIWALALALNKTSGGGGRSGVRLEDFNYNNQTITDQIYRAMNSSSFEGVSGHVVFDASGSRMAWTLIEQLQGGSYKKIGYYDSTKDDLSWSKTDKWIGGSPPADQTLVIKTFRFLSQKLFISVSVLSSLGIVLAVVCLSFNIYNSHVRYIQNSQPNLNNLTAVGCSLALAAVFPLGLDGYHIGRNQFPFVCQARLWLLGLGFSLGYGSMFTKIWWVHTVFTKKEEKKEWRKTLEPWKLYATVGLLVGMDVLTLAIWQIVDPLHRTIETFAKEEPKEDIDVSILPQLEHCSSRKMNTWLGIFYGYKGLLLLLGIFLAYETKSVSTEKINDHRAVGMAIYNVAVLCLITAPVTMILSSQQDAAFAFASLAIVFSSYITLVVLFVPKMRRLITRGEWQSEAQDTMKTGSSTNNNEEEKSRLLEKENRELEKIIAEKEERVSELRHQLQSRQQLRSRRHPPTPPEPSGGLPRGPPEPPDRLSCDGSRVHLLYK
MT3 (ML2), sequence (A0ABM2YAB8 entry or part of it): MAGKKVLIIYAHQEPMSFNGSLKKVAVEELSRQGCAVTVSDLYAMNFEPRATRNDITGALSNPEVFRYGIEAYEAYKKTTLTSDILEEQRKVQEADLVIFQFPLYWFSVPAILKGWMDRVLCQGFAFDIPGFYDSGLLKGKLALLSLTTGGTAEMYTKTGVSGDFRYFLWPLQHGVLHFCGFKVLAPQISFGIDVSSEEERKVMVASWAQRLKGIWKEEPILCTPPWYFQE
PAF (h), sequence (P25105 whole entry): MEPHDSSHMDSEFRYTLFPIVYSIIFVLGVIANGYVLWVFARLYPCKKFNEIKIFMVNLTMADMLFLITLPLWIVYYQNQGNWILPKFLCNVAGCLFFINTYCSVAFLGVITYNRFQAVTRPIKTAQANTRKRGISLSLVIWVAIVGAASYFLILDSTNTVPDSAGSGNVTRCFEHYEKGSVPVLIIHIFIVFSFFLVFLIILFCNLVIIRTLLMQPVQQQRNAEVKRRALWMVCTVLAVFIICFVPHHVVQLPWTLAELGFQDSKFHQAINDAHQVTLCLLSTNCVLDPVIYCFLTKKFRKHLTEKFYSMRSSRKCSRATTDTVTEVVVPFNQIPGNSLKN
AT1 (h), sequence (P30556 whole entry): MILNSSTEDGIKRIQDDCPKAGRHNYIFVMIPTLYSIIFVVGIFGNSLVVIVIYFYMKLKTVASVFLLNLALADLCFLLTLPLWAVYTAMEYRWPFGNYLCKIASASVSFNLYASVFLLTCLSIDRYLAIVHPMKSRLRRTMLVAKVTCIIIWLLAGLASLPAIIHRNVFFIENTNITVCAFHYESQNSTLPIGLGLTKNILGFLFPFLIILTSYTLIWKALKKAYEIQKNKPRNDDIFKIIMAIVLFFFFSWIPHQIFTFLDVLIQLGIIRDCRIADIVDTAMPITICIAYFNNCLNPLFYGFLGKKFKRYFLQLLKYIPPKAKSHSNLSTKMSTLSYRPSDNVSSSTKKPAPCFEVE
D3 (h), sequence (P35462 whole entry): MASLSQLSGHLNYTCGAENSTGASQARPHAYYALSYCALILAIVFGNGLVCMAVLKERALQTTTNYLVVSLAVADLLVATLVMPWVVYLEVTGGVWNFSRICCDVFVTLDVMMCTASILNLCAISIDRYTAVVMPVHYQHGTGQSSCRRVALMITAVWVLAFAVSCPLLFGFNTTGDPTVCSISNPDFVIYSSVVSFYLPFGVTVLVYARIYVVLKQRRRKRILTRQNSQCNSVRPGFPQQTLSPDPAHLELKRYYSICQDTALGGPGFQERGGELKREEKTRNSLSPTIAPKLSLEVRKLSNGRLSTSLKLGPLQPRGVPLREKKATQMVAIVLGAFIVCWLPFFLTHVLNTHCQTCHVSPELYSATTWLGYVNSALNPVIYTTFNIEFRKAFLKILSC
MT1 (ML1A) (h), sequence (P48039 whole entry): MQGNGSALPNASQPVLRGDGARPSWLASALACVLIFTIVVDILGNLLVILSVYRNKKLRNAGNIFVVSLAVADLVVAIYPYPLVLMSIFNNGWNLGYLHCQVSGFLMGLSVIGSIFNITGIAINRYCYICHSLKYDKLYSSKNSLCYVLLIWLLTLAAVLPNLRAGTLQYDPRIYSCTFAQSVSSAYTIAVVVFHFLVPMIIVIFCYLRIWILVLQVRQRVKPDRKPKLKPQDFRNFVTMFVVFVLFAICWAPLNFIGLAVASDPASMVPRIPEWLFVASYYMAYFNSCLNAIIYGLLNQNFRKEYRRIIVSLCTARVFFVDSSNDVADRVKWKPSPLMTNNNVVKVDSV
H1 (h), sequence (P35367 whole entry): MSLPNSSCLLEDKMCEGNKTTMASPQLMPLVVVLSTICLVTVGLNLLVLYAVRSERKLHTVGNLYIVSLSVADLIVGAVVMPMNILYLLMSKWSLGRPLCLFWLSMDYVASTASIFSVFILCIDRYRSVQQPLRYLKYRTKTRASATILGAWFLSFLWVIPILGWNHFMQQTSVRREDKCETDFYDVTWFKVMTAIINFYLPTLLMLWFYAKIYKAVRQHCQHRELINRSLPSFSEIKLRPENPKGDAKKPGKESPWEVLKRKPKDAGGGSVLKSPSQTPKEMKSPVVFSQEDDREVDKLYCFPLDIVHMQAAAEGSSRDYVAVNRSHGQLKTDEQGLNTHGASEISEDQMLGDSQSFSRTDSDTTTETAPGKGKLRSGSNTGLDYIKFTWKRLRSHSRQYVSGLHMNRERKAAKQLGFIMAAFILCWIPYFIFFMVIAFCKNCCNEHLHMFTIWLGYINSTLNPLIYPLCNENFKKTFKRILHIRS
5-HT7 (h), sequence (P34969 whole entry): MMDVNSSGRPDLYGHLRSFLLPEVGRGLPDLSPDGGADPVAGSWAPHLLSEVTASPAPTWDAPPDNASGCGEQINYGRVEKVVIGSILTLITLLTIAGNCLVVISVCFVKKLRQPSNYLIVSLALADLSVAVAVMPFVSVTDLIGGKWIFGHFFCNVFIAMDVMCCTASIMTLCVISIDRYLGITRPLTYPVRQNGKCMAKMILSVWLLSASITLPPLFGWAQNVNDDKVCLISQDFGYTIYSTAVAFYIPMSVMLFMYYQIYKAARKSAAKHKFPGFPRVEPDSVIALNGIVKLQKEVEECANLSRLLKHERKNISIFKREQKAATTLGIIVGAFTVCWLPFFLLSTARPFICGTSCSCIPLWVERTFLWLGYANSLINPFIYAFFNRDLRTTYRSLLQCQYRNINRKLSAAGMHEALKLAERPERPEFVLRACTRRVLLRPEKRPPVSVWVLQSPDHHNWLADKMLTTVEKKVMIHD
M3 (h), sequence (P20309 whole entry): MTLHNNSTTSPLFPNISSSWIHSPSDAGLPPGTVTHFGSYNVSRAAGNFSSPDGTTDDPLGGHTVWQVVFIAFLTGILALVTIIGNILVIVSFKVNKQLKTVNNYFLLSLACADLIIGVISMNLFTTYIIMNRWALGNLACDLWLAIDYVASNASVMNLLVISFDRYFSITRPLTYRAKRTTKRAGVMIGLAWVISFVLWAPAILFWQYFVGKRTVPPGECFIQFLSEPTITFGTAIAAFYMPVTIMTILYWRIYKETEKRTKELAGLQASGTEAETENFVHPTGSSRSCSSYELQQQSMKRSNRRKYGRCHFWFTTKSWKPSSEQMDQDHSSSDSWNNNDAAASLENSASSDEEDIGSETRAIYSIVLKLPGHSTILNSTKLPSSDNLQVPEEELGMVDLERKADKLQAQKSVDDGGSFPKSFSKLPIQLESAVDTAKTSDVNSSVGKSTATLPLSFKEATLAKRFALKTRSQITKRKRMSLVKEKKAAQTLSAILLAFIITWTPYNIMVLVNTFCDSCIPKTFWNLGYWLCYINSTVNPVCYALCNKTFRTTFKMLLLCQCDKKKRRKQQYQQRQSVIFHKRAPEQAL
PPARgamma (h), sequence (P37231 whole entry): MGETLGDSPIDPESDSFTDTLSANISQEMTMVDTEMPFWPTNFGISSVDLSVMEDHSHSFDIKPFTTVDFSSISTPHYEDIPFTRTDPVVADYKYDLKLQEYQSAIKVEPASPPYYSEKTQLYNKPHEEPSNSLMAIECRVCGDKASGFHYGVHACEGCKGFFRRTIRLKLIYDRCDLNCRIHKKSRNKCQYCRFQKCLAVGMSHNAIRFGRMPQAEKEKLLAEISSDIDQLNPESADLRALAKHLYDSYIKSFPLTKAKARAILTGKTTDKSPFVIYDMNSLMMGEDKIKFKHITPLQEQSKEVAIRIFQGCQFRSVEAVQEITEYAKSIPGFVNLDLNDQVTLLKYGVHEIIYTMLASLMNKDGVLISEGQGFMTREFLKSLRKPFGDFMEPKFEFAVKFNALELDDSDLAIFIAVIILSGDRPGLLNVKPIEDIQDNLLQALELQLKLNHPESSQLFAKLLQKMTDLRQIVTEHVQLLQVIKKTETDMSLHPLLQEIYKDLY

## CCOC(=O)Nc1cc(-c2ccc(C)c(NS(C)(=O)=O)c2)nn2c(C)nnc12 [BSP, ethyl (3-methyl-6-(4-methyl-3-(methylsulfonamido)phenyl)-[1,2,4]triazolo[4,3-b]pyridazin-8-yl)carbamate]
[1]
  inhibition at 10 µM: -2%
[2]
  N: 1.00 ± 0.002
  TΔS: 0.98 kcal/mol
  ΔG: -9.73 kcal/mol
  ΔH^obs: -8.75 ± 0.039 kcal/mol
[3]
  inhibition at 10 µM: -2%
[4]
  inhibition at 10 µM: -6%
[5]
  N: 1.10 ± 0.003
  TΔS: 4.18 kcal/mol
  ΔG: -9.64 kcal/mol
  ΔH^obs: -5.46 ± 0.028 kcal/mol
[6]
  FRAP, chromatin interaction of BRD4: displacement of proteins from chromatin
[7]
  inhibition at 10 µM: 13%
[8]
  inhibition at 10 µM: 7%
[9]
  inhibition at 10 µM: 5%
[10]
  IC50: 207 nM
[11]
  inhibition at 10 µM: 14%
[12]
  % Inhibition of Control Specific Binding: -7
[13]
  inhibition at 10 µM: 7%
[14]
  inhibition at 10 µM: 2%
[15]
  N: 0.99 ± 0.003
  TΔS: -2.76 kcal/mol
  ΔG: -9.72 kcal/mol
  ΔH^obs: -12.48 ± 0.069 kcal/mol
[16]
  % Inhibition of Control Specific Binding: 39
[17]
  inhibition at 10 µM: 6%
[18]
  inhibition at 10 µM: 7%
[19]
  inhibition at 10 µM: 1%
[20]
  inhibition at 10 µM: 1%
[21]
  colony formation: decreased; also recorded: severely inhibited
[22]
  inhibition at 10 µM: 2%
[23]
  N: 1.09 ± 0.029
  TΔS: 4.06 kcal/mol
  ΔG: -6.67 kcal/mol
  ΔH^obs: -2.61 ± 0.088 kcal/mol
[24]
  % Inhibition of Control Specific Binding: 11
[25]
  inhibition at 10 µM: 103%
[26]
  inhibition at 10 µM: -34%
[27]
  inhibition at 10 µM: 30%
[28]
  inhibition at 10 µM: 3%
[29]
  inhibition at 10 µM: -14%
[30]
  inhibition at 10 µM: -50%
[31]
  N: 1.04 ± 0.002
  TΔS: -6.60 kcal/mol
  ΔG: -10.68 kcal/mol
  ΔH^obs: -17.28 ± 0.062 kcal/mol
[32]
  inhibition at 10 µM: 17%
[33]
  inhibition at 10 µM: -1%
[34]
  inhibition at 10 µM: 100%
